The source of these data is patent US9440948B2, “Nicotine compounds and analogs thereof, synthetic methods of making compounds, and methods of use” (priority 2010, dated 2016).

Experiment [1] has as its system rat brain nAChRs that bind nicotine with high affinity. The settings on record: reference 7; cited from earlier work.
Experiment [2] has as its target T1, α4β2 receptors (Homo sapiens, UniProt P17787+P43681).
T1 construct: expressed in transfected cells; host or cells: Xenopus laevis oocytes (mRNA injection, alpha4:beta2 1:1)
The format is cell-based. Conditions: for agonist activity/potency on α4β2 receptors (in words): oocytes expressing α4β2 receptors. An excerpt:
(§1) ACh control applications alternated with test compound applications.

The target of experiment [3] is T2, α7 receptors (Homo sapiens, UniProt P36544).
T2 construct: expressed in transfected cells; host or cells: Xenopus laevis oocytes (mRNA injection)
The class given is cell-based. The settings on record: oocytes expressing α7 receptors.
Excerpt: as §1

In experiment [4] the test system is α6/α3 chimera/β2 receptors. Conditions: oocytes, FIG. 2.13.
Protocol: Mature female Xenopus laevis were anesthetized by immersion in a 1.5 g/L solution of aminobenzoic acid ethyl ester (MP Biomedicals, LLC, Solon, Ohio) for 30 min. The excised ovary bag was placed into calcium-free Barth's saline (88 mM NaCl, 1 mM KCl, 2.38 mM NaHCO3, 0.82 mM MgSO4, 15 mM HEPES, 0.012 mg/ml tetracycline hydrochloride, pH 7.3+−0.1), opened with forceps and washed three times with Barth's saline. Then 60 ml collagenase solution (76 mg Sigma type XX collagenase dissolved in Ca^2+-free Barth saline) was added and the oocyte containing mass was shaken for 2 hours at 5° C. After washing three times with Ca^2+-free Barth's and then three times with Barth's solution containing calcium, the oocytes were evaluated under a stereo microscope. Healthy stage 5 oocytes were transferred into new dishes and incubated in 17° C. for overnight. Oocytes were injected with either 50 nl of alpha7 mRNA solution (20 ng) or 50 nl of a mixture of alpha4 and beta2 (1:1, 10 ng) mRNA, using a Drummond Nanoject II Auto-Injector. The cells were cultured in Barth's saline at 17° C. for 5-16 days, with daily changes in the saline. […] Membrane currents were recorded with an AxoClamp-2 (Axon Instruments, Union City, Calif.), filtered at 10 kHz and sampled at 5 kHz. […]
Experiment [5] deals with alpha7 receptors relative to alpha4beta2 nAChRs. Conditions: Martin et al., 2004; cited from earlier work.
The mark [6] stands for this setting: listed as 3-(((2S,5S)-1,5-Dimethylpyrrolidine-2-yl)methoxy)-pyridine.

“Also recorded” adds a separate entry of the source. Where two headings read alike, the source gives them in different places.

T1 sequence (P43681 29-627 limits assumed): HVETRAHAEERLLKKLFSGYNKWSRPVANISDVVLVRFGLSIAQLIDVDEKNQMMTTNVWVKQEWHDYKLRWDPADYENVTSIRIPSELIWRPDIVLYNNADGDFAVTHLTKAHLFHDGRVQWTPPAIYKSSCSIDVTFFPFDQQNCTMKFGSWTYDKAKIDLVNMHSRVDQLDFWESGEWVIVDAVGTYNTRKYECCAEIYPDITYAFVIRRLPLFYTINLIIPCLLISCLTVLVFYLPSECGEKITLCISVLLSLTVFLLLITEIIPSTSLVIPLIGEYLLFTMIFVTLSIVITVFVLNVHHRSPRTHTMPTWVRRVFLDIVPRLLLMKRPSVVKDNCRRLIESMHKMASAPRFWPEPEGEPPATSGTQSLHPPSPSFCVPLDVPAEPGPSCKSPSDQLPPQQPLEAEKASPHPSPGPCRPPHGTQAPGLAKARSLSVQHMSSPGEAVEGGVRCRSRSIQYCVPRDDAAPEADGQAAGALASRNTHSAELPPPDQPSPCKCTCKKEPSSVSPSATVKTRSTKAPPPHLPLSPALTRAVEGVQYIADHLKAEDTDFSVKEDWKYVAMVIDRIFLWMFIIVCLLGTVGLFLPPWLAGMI
T1 sequence (P17787 26-502): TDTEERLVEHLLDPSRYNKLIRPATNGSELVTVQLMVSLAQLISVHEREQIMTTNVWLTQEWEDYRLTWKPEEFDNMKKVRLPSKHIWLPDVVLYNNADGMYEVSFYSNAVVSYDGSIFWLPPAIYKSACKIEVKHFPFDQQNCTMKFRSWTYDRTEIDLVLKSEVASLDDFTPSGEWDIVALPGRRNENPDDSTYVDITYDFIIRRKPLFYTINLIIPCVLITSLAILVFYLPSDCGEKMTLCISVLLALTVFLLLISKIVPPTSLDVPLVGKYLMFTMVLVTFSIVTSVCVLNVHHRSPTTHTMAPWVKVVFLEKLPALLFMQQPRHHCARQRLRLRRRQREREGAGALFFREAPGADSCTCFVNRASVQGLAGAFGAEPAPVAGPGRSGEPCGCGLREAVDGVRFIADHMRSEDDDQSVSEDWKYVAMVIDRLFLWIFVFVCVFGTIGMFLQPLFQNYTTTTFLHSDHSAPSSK
T2 sequence (P36544 23-502): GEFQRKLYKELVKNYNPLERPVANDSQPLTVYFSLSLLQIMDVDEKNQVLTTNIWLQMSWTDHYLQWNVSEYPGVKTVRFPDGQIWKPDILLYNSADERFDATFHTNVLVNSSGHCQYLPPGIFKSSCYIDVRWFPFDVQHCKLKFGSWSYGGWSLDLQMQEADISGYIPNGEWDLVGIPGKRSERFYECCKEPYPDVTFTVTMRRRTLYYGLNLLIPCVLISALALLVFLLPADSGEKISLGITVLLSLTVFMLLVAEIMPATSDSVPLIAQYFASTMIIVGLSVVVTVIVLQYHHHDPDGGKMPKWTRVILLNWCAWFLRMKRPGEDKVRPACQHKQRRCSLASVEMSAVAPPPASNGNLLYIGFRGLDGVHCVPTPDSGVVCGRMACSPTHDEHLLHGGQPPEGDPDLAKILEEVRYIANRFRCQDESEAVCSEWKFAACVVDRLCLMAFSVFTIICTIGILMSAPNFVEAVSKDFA

`CCC1(c2cccnc2)CCCN1C` (racemic) [2′-ethyl-nicotine, (±)-2′-Ethylnicotine]: in experiment [1], the “displacement of radiolabeled methylcarbamylcholine binding (in words)” value is recorded as “displace the binding”.
Consider `CN1CCCC1(C)c1cccnc1` (racemic) [2′ methyl-nicotine, (±)-2′-Methylnicotine], for which, in experiment [1], the “displacement of radiolabeled methylcarbamylcholine binding (in words)” value was “displace the binding”. The “agonist activity/potency on α4β2 receptors (in words)” value in experiment [2] is reported as “excellent agonist activity”. The “agonist activity/potency on α7 receptors (in words)” value in experiment [3] is reported as “excellent agonist activity”. Moreover, in experiment [3] (FIG. 2.10), the “increase in potency at α7 nAChR relative to nicotine” value is 6.7 fold.
Turning to `CN1CCC1c1cccnc1` (stereo not drawn) [trans-3-(1-methylazetidin-2-yl)pyridine], the “agonist activity/potency on α4β2 receptors (in words)” value in experiment [2] was “more potent strong agonist”. For the same compound, the “agonist activity/potency on α7 receptors (in words)” value in experiment [3] is given as “more potent strong agonist”.
For the compound `C[C@H]1CC[C@@H](c2cccnc2)N1C` [5′ Cis-Me-Nic], the “agonist activity/potency on α4β2 receptors (in words)” value in experiment [2] was “inactive”. The “response of α6/α3 chimera/β2 receptors (in words)” value in experiment [4] was “essentially identical manner”.
`C[C@H]1CC[C@@H](COc2cccnc2)N1C` [3-(((2S,5S)-1,5-Dimethylpyrrolidin-2-yl)methoxy)pyridine]: the “agonist activity/potency on α4β2 receptors (in words)” value in experiment [2] was “essentially no agonistic activity”; in experiment [2] (setting [6]), “low activity”. Further, the “agonist activity/potency on α7 receptors (in words)” value in experiment [3] (setting [6]) was “high potency; also recorded: low activity”.
On to `C[C@H]1C[C@H](c2cccnc2)N1C` (relative stereo) [Trans-3-(1,4-Dimethylazetidin-2-yl)pyridine], for which the “potency of trans- versus cis-diastereomers on α4β2 receptors (in words)” value in experiment [2] (oocytes, FIG. 3.4) is reported as “significantly more potent than the cis-diastereomers”.
Regarding `C[C@@H]1CC[C@@H](COc2cccnc2)N1C` [3-(((2S,5R)-1,5-Dimethylpyrrolidin-2-yl)methoxy)pyridine], in experiment [2], the “agonist activity/potency on α4β2 receptors (in words)” value was “essentially no agonistic activity”.
In the case of `CN1CCC[C@H]1c1cccnc1` [nicotine, (S)-nicotine], the “alpha7 receptors less sensitive to nicotine relative to alpha4beta2 nAChRs” value in experiment [5] is given as “at least 50 ×”.
Consider `C[C@@H]1CC[C@@H](c2cccnc2)N1C` [5′ Trans-Me-Nic], for which the “agonist activity/potency on α4β2 receptors (in words)” value in experiment [2] is “inactive”. The “response of α6/α3 chimera/β2 receptors (in words)” value in experiment [4] is “essentially identical manner”.
